Experimental data published in patent US20210198277A1, “AMINE-SUBSTITUTED ARYL OR HETEROARYL COMPOUNDS” (Epizyme, Inc., priority 2016, published 2021).

Legend:
[1] = target: T1, human EHMT2 913-1193 (Homo sapiens, UniProt Q96KQ7); assay: EHMT2 enzyme assay on histone peptide substrate (EHMT2 PEP); type: biochemical; settings: Table III; read-out: EHMT2 PEP (IC50 μM)
T1 construct: recombinant purified human EHMT2 913-1193, Viva; purchased Viva
T1 sequence (Q96KQ7 913-1193): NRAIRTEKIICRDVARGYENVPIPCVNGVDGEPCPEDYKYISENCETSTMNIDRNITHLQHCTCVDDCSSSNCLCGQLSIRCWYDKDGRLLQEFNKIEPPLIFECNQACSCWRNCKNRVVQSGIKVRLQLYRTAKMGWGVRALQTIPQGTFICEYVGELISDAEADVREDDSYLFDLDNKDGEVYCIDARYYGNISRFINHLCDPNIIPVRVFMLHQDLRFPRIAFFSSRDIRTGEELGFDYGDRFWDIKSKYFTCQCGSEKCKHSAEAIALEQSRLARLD
Summary of the method: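 10-pt 3-fold series, 50 μM top final, 2% DMSO; 30 min preinc w/ 0.031 nM enzyme; pH 7.5 Bicine/TCEP buffer; ^3H-SAM + biotin-histone peptide, 60 min RT; SAM quench; streptavidin Flashplate capture, TopCount.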

[2] = target: T2, EHMT1 (Homo sapiens, UniProt Q9H9B1); assay: EHMT1 enzyme assay on peptide substrate (EHMT1 PEP); type: biochemical; settings: Table III; read-out: EHMT1 PEP (IC50 μM)
T2 sequence (Q9H9B1 1-1298): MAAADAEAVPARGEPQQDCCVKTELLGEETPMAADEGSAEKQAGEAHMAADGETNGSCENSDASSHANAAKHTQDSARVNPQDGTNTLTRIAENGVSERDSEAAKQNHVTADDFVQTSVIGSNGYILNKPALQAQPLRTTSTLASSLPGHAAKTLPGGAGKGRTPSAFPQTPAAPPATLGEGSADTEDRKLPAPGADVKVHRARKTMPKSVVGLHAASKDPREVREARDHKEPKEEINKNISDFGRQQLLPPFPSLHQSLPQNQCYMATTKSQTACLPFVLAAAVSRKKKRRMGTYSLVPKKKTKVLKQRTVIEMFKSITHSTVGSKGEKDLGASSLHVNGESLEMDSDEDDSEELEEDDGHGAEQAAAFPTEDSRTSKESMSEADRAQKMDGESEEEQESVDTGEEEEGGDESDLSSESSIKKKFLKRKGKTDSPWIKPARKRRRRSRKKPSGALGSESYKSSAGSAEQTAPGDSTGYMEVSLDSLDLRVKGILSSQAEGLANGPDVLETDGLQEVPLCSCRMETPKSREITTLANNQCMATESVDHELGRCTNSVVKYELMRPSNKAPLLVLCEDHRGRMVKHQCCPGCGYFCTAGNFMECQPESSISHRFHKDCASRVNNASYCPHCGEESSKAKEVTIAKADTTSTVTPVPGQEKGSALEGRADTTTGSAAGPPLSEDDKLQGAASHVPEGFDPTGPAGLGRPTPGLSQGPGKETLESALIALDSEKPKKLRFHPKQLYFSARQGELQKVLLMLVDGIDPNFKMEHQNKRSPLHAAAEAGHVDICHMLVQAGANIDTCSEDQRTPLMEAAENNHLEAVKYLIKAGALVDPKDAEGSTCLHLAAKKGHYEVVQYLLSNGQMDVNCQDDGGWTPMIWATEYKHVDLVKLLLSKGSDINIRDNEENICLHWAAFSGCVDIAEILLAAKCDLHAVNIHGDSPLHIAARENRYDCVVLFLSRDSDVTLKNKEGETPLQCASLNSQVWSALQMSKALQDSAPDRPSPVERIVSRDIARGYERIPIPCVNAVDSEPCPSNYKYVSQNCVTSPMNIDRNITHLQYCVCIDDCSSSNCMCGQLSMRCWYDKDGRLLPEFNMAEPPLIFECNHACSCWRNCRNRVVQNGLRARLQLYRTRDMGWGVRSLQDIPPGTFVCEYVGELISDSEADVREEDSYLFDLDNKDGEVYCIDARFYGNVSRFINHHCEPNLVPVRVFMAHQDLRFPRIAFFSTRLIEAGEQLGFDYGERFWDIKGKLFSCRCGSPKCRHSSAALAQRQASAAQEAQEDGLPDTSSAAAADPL

## CNc1cc(C)nc(Nc2ccc(OC)c(O[C@H]3C[C@@H](N(C)C)C3)c2)n1 (single isomer, unassigned) [Compound 317, N^2-(3-((1s,3s)-3-(dimethylamino)cyclobutoxy)-4-methoxyphenyl)-N^4,6-dimethylpyrimidine-2,4-diamine]
[1]
  IC50: 1 to 10 µM
[2]
  IC50: > 10 µM

## CNc1ccnc(Nc2ccc(OC)c(OC[C@@H]3CN(C)C[C@H]3C)c2)n1 (single isomer, unassigned) [Compound 438]
[1]
  IC50: > 10 µM
[2]
  IC50: > 10 µM

## CNc1ccnc(Nc2ccc(OC)c(OC[C@H]3CN(C)C[C@@H]3C)c2)n1 (single isomer, unassigned) [Compound 439]
[1]
  IC50: 0.1 to 1 µM
[2]
  IC50: 0.1 to 1 µM

## CNc1ccnc(Nc2cccc(COCCN3CCCC3)n2)c1 [Compound 267, N^4-methyl-N^2-(6-((2-(pyrrolidin-1-yl)ethoxy)methyl)pyridin-2-yl)pyridine-2,4-diamine]
[1]
  IC50: > 10 µM
[2]
  IC50: > 10 µM

## CNc1cc(Nc2cccc(COCCN3CCCC3)n2)ccn1 [Compound 268, N^2-methyl-N^4-(6-((2-(pyrrolidin-1-yl)ethoxy)methyl)pyridin-2-yl)pyridine-2,4-diamine]
[1]
  IC50: > 10 µM
[2]
  IC50: > 10 µM

## CNc1nc(C2CCN(C)CC2)c2cc(OC)c(OCCCN3CCCC3)cc2n1 [Compound 270]
[1]
  IC50: < 0.1 µM
[2]
  IC50: < 0.1 µM

## CNc1ccnc(Nc2ccc(OC)c(OCCCN3CC[C@H](F)C3)c2)n1 [Compound 271]
[1]
  IC50: 1 to 10 µM
[2]
  IC50: 0.1 to 1 µM

## CNc1cc(Nc2ccc(OC)c(OCCCN3CCCC3)c2)ncc1F [Compound 272, 5-fluoro-N^2-(4-methoxy-3-(3-(pyrrolidin-1-yl)propoxy)phenyl)-N^4-methylpyridine-2,4-diamine]
[1]
  IC50: 0.1 to 1 µM
[2]
  IC50: 1 to 10 µM

## CNc1cc(Nc2ccc(OC)c(OCCCN3CCCC3)c2)cc(C(F)(F)F)n1 [Compound 273]
[1]
  IC50: > 10 µM
[2]
  IC50: > 10 µM

## CNc1ccnc(Nc2cccc(N3CCC(N)C3=O)c2)n1 (stereo not drawn) [Compound 274]
[1]
  IC50: 1 to 10 µM
[2]
  IC50: 1 to 10 µM

## CNc1ccnc(Nc2cccc(N3CCC(N(C)C)C3=O)c2)n1 (stereo not drawn) [Compound 275]
[1]
  IC50: > 10 µM
[2]
  IC50: > 10 µM

## CNc1ccnc(Nc2cccc(OCC(F)CN3CCCC3)c2)n1 (stereo not drawn) [Compound 276, N^2-(3-(2-fluoro-3-(pyrrolidin-1-yl)propoxy)phenyl)-N^4-methylpyrimidine-2,4-diamine]
[1]
  IC50: > 10 µM
[2]
  IC50: 1 to 10 µM

## CNc1ccnc(Nc2cccc(OCC(F)(F)CN3CCCC3)c2)n1 [Compound 277, N^2-(3-(2,2-difluoro-3-(pyrrolidin-1-yl)propoxy)phenyl)-N^4-methylpyrimidine-2,4-diamine]
[1]
  IC50: > 10 µM
[2]
  IC50: > 10 µM

## COc1ccc(Nc2nccc(NCC3CC(C)(C)NC(C)(C)C3)n2)cc1OCCCN1CCCC1 [Compound 278]
[1]
  IC50: < 0.1 µM
[2]
  IC50: < 0.1 µM

## CNc1ccnc(Nc2cccc(C(C)OCCN3CCCC3)c2)n1 (stereo not drawn) [Compound 279, N^4-methyl-N^2-(3-(1-(2-(pyrrolidin-1-yl)ethoxy)ethyl)phenyl) pyrimidine-2,4-diamine]
[1]
  IC50: > 10 µM
[2]
  IC50: > 10 µM

## CCN(CC)CCCOc1cc(Nc2nccc(NC)n2)ccc1OC [Compound 280, N^2-(3-(3-(diethylamino)propoxy)-4-methoxyphenyl)-N^4-methylpyrimidine-2,4-diamine]
[1]
  IC50: 1 to 10 µM
[2]
  IC50: 1 to 10 µM

## CNc1ccnc(Nc2ccc(OC)c(OCCCN3CCC(S(C)(=O)=O)C3)c2)n1 (stereo not drawn) [Compound 282]
[1]
  IC50: > 10 µM
[2]
  IC50: > 10 µM

## CNc1ccnc(Nc2ccc(OC)c(OCCCN3CCC(OC)C3)c2)n1 (stereo not drawn) [Compound 283, N^2-(4-methoxy-3-(3-(3-methoxypyrrolidin-1-yl)propoxy)phenyl)-N^4-methylpyrimidine-2,4-diamine]
[1]
  IC50: < 0.1 µM
[2]
  IC50: < 0.1 µM

## CNc1ccnc(Nc2ccc(OC)c(OCCCN3CCC4(COC4)C3)c2)n1 [Compound 284]
[1]
  IC50: > 10 µM
[2]
  IC50: > 10 µM

## CNc1ccnc(Nc2ccc(OC)c(OCCCN3CCC(C(F)(F)F)C3)c2)n1 (stereo not drawn) [Compound 285, N^2-(4-methoxy-3-(3-(3-(trifluoromethyl)pyrrolidin-1-yl)propoxy)phenyl)-N^4-methylpyrimidine-2,4-diamine]
[1]
  IC50: > 10 µM
[2]
  IC50: > 10 µM

## CNc1ccnc(Nc2ccc(OC)c(OCCCN3CCC(O)C3)c2)n1 (stereo not drawn) [Compound 286, 1-(3-(2-methoxy-5-((4-(methylamino)pyrimidin-2-yl)amino)phenoxy)propyl)pyrrolidin-3-ol]
[1]
  IC50: < 0.1 µM
[2]
  IC50: 0.1 to 1 µM

## CNc1ccnc(Nc2ccc(OC)c(OCCCN3CCC(C#N)C3)c2)n1 (stereo not drawn) [Compound 287, 1-(3-(2-methoxy-5-((4-(methylamino)pyrimidin-2-yl)amino)phenoxy)propyl)pyrrolidine-3-carbonitrile]
[1]
  IC50: > 10 µM
[2]
  IC50: > 10 µM

## CNc1ccnc(Nc2ccc(OC)c(OCCC3CCCN3C)c2)n1 (stereo not drawn) [Compound 288, N^2-(4-methoxy-3-(2-(1-methylpyrrolidin-2-yl)ethoxy)phenyl)-N^4-methylpyrimidine-2,4-diamine]
[1]
  IC50: 0.1 to 1 µM
[2]
  IC50: 0.1 to 1 µM

## CNc1ccnc(Nc2ccc(OC)c(OCC3CCCN3C)c2)n1 (stereo not drawn) [Compound 289, N^2-(4-methoxy-3-((1-methylpyrrolidin-2-yl)methoxy)phenyl)-N^4-methylpyrimidine-2,4-diamine]
[1]
  IC50: 0.1 to 1 µM
[2]
  IC50: < 0.1 µM

## CNc1ccnc(Nc2ccc(OC)c(OCCCN3CCCC3C)c2)n1 (stereo not drawn) [Compound 290, N^2-(4-methoxy-3-(3-(2-methylpyrrolidin-1-yl)propoxy)phenyl)-N^4-methylpyrimidine-2,4-diamine]
[1]
  IC50: 0.1 to 1 µM
[2]
  IC50: 0.1 to 1 µM

## CCNC(=O)c1cc(Nc2nccc(NC)n2)ccn1 [Compound 291, N-ethyl-4-((4-(methylamino)pyrimidin-2-yl)amino)picolinamide]
[1]
  IC50: > 10 µM
[2]
  IC50: > 10 µM

## CNc1ccnc(Nc2ccc(OC)c(OCCCN3CCC(C)C3)c2)n1 (stereo not drawn) [Compound 293, N^2-(4-methoxy-3-(3-(3-methylpyrrolidin-1-yl)propoxy)phenyl)-N^4-methylpyrimidine-2,4-diamine]
[1]
  IC50: 1 to 10 µM
[2]
  IC50: 0.1 to 1 µM

## CNc1ccnc(Nc2cccc3oc(CCN(C)C)nc23)n1 [Compound 295]
[1]
  IC50: > 10 µM
[2]
  IC50: > 10 µM

## CNc1ccnc(Nc2cccc(N3CC(N)CC3=O)c2)n1 (stereo not drawn) [Compound 296]
[1]
  IC50: > 10 µM
[2]
  IC50: > 10 µM

## CNc1ccnc(Nc2cccc(N3CCC(N)C3)c2)n1 (stereo not drawn) [Compound 297]
[1]
  IC50: 1 to 10 µM
[2]
  IC50: > 10 µM

## CNc1ccnc(Nc2ccc(OC)c(OCCCN3CC4CC4C3)c2)n1 (stereo not drawn) [Compound 298, N^2-(3-(3-(3-azabicyclo[3.1.0]hexan-3-yl)propoxy)-4-methoxyphenyl)-N^4-methylpyrimidine-2,4-diamine]
[1]
  IC50: < 0.1 µM
[2]
  IC50: < 0.1 µM

## CNc1ccnc(Nc2ccc(OC)c(OC[C@H](O)CN3CCCC3)c2)n1 [Compound 299, (R)-1-(2-methoxy-5-((4-(methylamino)pyrimidin-2-yl)amino)phenoxy)-3-(pyrrolidin-1-yl)propan-2-ol]
[1]
  IC50: < 0.1 µM
[2]
  IC50: < 0.1 µM

## CNc1ccnc(Nc2ccc(OC)c(OC[C@@H](O)CN3CCCC3)c2)n1 [Compound 300, (S)-1-(2-methoxy-5-((4-(methylamino)pyrimidin-2-yl)amino)phenoxy)-3-(pyrrolidin-1-yl)propan-2-ol]
[1]
  IC50: 0.1 to 1 µM
[2]
  IC50: 0.1 to 1 µM
